Measurements: US20250376473A1, “PRMTS INHIBITOR AND USE THEREOF” (Cytosinlab Therapeutics Co., Ltd., priority 2022, published 2025)
Where two headings read alike, the source gives them in different places.

How the values were obtained:
HCT116 MTAP WT cells = test: Proliferation inhibition of HCT116 cells in vitro (CellTiter Glo); type: cell-based; conditions: 6 days, 9 concentrations starting from 30 μM, read-out: Cell proliferation inhibition rate HCT116 MTAP WT IC50 (nm)
Description: (§1) Biological Test Example 2 Proliferation Inhibition of HCT116 and HCT116 MTAP-KO Cells in Vitro
(§2) HCT116 cell line was purchased from the Chinese Academy of Sciences Cell Bank, and the MTAP gene was knocked out by CRISPR/Cas9 technology to obtain HCT116-MTAP-KO cell line.
(§3) McCoy's 5A medium (Gibco, catalog No. 16600082), fetal bovine serum (Gibco, catalog No. 10099141C), penicillin-streptomycin double antibody (Gibco, catalog No. 15140122), pancreatic enzyme (Gibco, catalog No. 25200056), CellTiter Glo assay kit (Promega, catalog No. G7572), 384-well transparent flat-bottomed black walled cell culture plate (Corning, catalog No. 3764), ultra micro sampler (Tecan, catalog No.D300e), Multimode reader (Biotek, catalog No. SynergyHTX)
(§4) 1. Cell culture: HCT116 and HCT116-MTAP-KO cells were cultured in McCoy'5A medium+10% fetal bovine serum+1% penicillin-streptomycin double antibody; to ensure that they were always in the logarithmic growth phase and the cell viability greater than 95%.
(§5) 2. Compound concentration gradient preparation: The compound to be tested was added to a 384-well plate using an ultra micro sampler, starting from 30 μM (HCT116 cells) or 3 μM (HCT116-MTAP-KO cells), and diluted with DMSO at 3 times for a total of 9 concentrations and set up three duplicate wells.
(§6) 3. Treatment of cells with compounds: Trypsin-digested HCT116 or HCT116-MTAP-KO cell suspension was added to the 384-well plates spotted with the compounds to be tested at 40 μL per well, i.e., 100 cells per well, and the final concentration of DMSO was 0.4%. The cell culture plate was incubated at 37° C. in a 5% CO2 incubator for 6 days.
(§7) 4. Detection: 20 μL of CellTiter Glo reagent was added to each well of the cell culture plate and incubated at room temperature for 30 minutes. A multimode reader was used to detect the luminescence signal at […].
(§8) The data was fitted with GraphPad Prism 8.0 software using a four parameter inhibitor-reaction model to obtain the IC50 value (half inhibitory concentration) of the test compounds.

[1] = tested on: HCT116-MTAP-KO cells (HCT116 MTAP null); test: Proliferation inhibition of HCT116 MTAP-KO cells in vitro (CellTiter Glo); type: cell-based; conditions: 6 days, 9 concentrations starting from 3 μM, read-out: Cell proliferation inhibition rate HCT116 MTAP null IC50 (nm)
Description: as §1, §2, §3, §4, §5, §6, §7, §8

SMILES | IC50 (HCT116 MTAP WT cells; Homo sapiens, HCT-116, 144 h) | IC50 ([1]; HCT116-MTAP null, 144 h) | IC50 (HCT116 MTAP WT cells) | IC50 [1]
Cc1ncc2c(N)nc3ccc(C(=O)N(Cc4ccc(C(F)(F)F)cn4)C(C)c4ncccn4)cc3n12 (stereo not shown) [Example 2] | 1 to 10 µM | 0.1 to 1 µM |  | 
Cc1ncc2c(N)nc3cc(F)c(C(=O)N(Cc4ncc(C(F)(F)F)cc4F)c4cnn(C)c4)cc3n12 [Example 120] | 1 to 10 µM | < 0.1 µM |  | 
CCN(Cc1ccc(C(F)(F)F)nn1)C(=O)c1cc2c(cc1F)nc(N)c1cnc(C)n12 [Example 81] | 1 to 10 µM | 0.1 to 1 µM |  | 
Cc1ncc2c(N)nc3cnc(C(=O)N(Cc4ccc(C(F)(F)F)cn4)c4ccnn4C)cc3n12 [Example 211] | 1 to 10 µM | < 0.1 µM |  | 
CCn1cc(N(Cc2ccc(C(F)(F)F)cn2)C(=O)c2cc3c(cc2F)nc(N)c2c(C)ncn23)c(C)n1 [Example 150] | 0.1 to 1 µM | < 0.1 µM |  | 
CCN(Cc1nc(-c2ccc(C(F)(F)F)nc2)cs1)C(=O)c1cc2c(cc1F)nc(N)c1cnc(C)n12 [Example 73] | 1 to 10 µM | 0.1 to 1 µM |  | 
Cc1ncn2c1c(N)nc1ccc(C(=O)N(Cc3nc(C4=CCOCC4)cs3)CC(C)C)cc12 [Example 303] | 1 to 10 µM | < 0.1 µM |  | 
Cc1cn(C)nc1N(Cc1ccc(C(F)(F)F)cn1)C(=O)c1cc2c(cc1F)nc(N)c1cnc(C)n12 [Example 179] | 1 to 10 µM | < 0.1 µM |  | 
CCOc1ccc(CN(CC)C(=O)c2cc3c(cc2F)nc(N)c2c(C)ncn23)nn1 [Example 95] |  |  | 1 to 10 µM | 0.1 to 1 µM
COc1ccc(C2COCC(C)N2C(=O)c2cc3c(cc2F)nc(N)c2c(C)ncn23)nn1 (stereo not shown) [Example 278] | 0.1 to 1 µM | 0.1 to 1 µM |  | 
COc1ccc(CN(C(=O)c2cc3c(cc2F)nc(N)c2cnc(C)n23)c2cn(C)nc2C)nn1 [Example 131] | 1 to 10 µM | < 0.1 µM |  | 
Cc1ncc2c(N)nc3cc(F)c(C(=O)N(Cc4ccc(F)cn4)c4ccnn4C)cc3n12 [Example 207] | 1 to 10 µM | < 0.1 µM |  | 
Cc1ncc2c(N)nc3cc(F)c(C(=O)N(Cc4ccc(OC5CC5)nn4)c4ccnn4C)cc3n12 [Example 215] | 1 to 10 µM | < 0.1 µM |  | 
Cc1ncn2c1c(N)nc1ccc(C(=O)N(Cc3nc(-c4ncccn4)cs3)CC(C)C)cc12 [Example 305] | 1 to 10 µM | < 0.1 µM |  | 
CCN(Cc1cn2cc(C(F)F)ccc2n1)C(=O)c1cc2c(cc1F)nc(N)c1c(C)ncn12 [Example 244] | 1 to 10 µM | < 0.1 µM |  | 
Cc1ncc2c(N)nc3cc(F)c(C(=O)N(Cc4cn5ccc(C(F)(F)F)cc5n4)c4cnn(C)c4)cc3n12 [Example 70] | 1 to 10 µM | 0.1 to 1 µM |  | 
Cc1ncc2c(N)nc3cc(F)c(C(=O)N(Cc4cccc(C(F)(F)F)n4)c4ccnn4C)cc3n12 [Example 326] | 1 to 10 µM | < 0.1 µM |  | 
Cc1ncc2c(N)nc3cc(F)c(C(=O)N4C(C)COCC4c4ccc(C(F)(F)F)cc4)cc3n12 (stereo not shown) [Example 275] | 1 to 10 µM | < 0.1 µM |  | 
Cc1ncc2c(N)nc3cc(F)c(C(=O)N(c4cnn(C)c4)C4COc5ccccc54)cc3n12 (stereo not shown) [Example 125] |  |  | 1 to 10 µM | < 0.1 µM
Cc1ncc2c(N)nc3cc(F)c(C(=O)N4[C@H](C)COC[C@@H]4c4cn5ccccc5n4)cc3n12 [Example 38] | 1 to 10 µM | 0.1 to 1 µM |  | 
CCc1nn(C)cc1N(Cc1ccc(C(F)(F)F)cn1)C(=O)c1cc2c(cc1F)nc(N)c1cnc(C)n12 [Example 169] |  |  | 0.1 to 1 µM | < 0.1 µM
Cc1nn(C)cc1N(Cc1ccc(C(F)(F)F)nn1)C(=O)c1cc2c(cc1F)nc(N)c1c(C)ncn12 [Example 193] | 0.1 to 1 µM | < 0.1 µM |  | 

SMILES | IC50 (HCT116 MTAP WT cells; Homo sapiens, HCT-116, 144 h) | IC50 ([1]; HCT116-MTAP null, 144 h) | IC50 (HCT116 MTAP WT cells) | IC50 [1]
Cc1nn(C)cc1N(Cc1ncc(C(F)(F)F)s1)C(=O)c1cc2c(cc1F)nc(N)c1cnc(C)n12 [Example 203] | 1 to 10 µM | < 0.1 µM |  | 
Cc1ncc2c(N)nc3cc(F)c(C(=O)N4C(C)COCC4c4ccc(C(F)(F)F)cn4)cc3n12 (stereo not shown) [Example 273] | 1 to 10 µM | < 0.1 µM |  | 
Cc1ncc2c(N)nc3cc(F)c(C(=O)N(Cc4ccc(OC5CC5)cn4)c4ccnn4C)cc3n12 [Example 205] | 0.1 to 1 µM | < 0.1 µM |  | 
Cc1ncn2c1c(N)nc1ccc(C(=O)N(Cc3nc(C4CCOCC4)cs3)CC(C)C)cc12 [Example 310] | 1 to 10 µM | < 0.1 µM |  | 
Cc1ncc2c(N)nc3cc(F)c(C(=O)N(Cc4ccc(N5CC(F)(F)C5)cn4)c4ccnn4C)cc3n12 [Example 219] | 1 to 10 µM | < 0.1 µM |  | 
Cc1ncc2c(N)nc3cc(F)c(C(=O)N(Cc4cn5ccccc5n4)C(C)C(F)(F)F)cc3n12 (stereo not shown) [Example 243] | 1 to 10 µM | 0.1 to 1 µM |  | 
Cc1ncn2c1c(N)nc1cc(F)c(C(=O)N(c3cnn(C)c3)C3COc4ccccc43)cc12 (stereo not shown) [Example 121] |  |  | 1 to 10 µM | < 0.1 µM
Cc1ncc2c(N)nc3cnc(C(=O)N(Cc4ccc(C(F)(F)F)cn4)C(C)c4ncccn4)cc3n12 (stereo not shown) [Example 16] | 1 to 10 µM | 0.1 to 1 µM |  | 
COCCn1cc(CN(C(=O)c2cc3c(cc2F)nc(N)c2cnc(C)n23)c2ccnn2C)cn1 [Example 221] | 1 to 10 µM | 0.1 to 1 µM |  | 
Cc1nc(C)n2c1c(N)nc1ccc(C(=O)N(Cc3ccc(C(F)(F)F)cn3)C(C)c3ncccn3)cc12 (stereo not shown) [Example 14] |  |  | 1 to 10 µM | < 0.1 µM
CCOc1ccc(CN(C(=O)c2cc3c(cc2F)nc(N)c2cnc(C)n23)c2ccnn2C)nc1 [Example 212] | 1 to 10 µM | < 0.1 µM |  | 
Cc1ncn2c1c(N)nc1cc(F)c(C(=O)N3C(C)COCC3c3ccc(C(F)(F)F)cn3)cc12 (stereo not shown) [Example 280] |  | < 0.1 µM | 0.1 to 1 µM | 
Cc1cn2c(n1)c(N)nc1ccc(C(=O)N3[C@H](C)COC[C@@H]3c3cn4ccccc4n3)cc12 [Example 29] | 1 to 10 µM | 0.1 to 1 µM |  | 
Cc1cnn2c1c(N)nc1ccc(C(=O)N(Cc3ccc(C(F)(F)F)cn3)C(C)c3ncccn3)cc12 (stereo not shown) [Example 315] |  |  | < 0.1 µM | < 0.1 µM
CCN(Cc1ccc(OC2CC2)cn1)C(=O)c1cc2c(cc1F)nc(N)c1cnc(C)n12 [Example 85] | 1 to 10 µM | < 0.1 µM |  | 
Cc1ccc(N(Cc2ccc(C(F)(F)F)cn2)C(=O)c2cc3c(cc2F)nc(N)c2cnc(C)n23)c(C)n1 [Example 187] | 1 to 10 µM | < 0.1 µM |  | 
Cc1ncc2c(N)nc3cc(F)c(C(=O)N(Cc4ccc(C(F)(F)F)cn4)c4cn(C)nc4C(F)(F)F)cc3n12 [Example 178] | 1 to 10 µM | < 0.1 µM |  | 
Cc1ncc2c(N)nc3cc(F)c(C(=O)N(Cc4cnn(-c5ccccn5)c4)c4ccnn4C)cc3n12 [Example 234] | 1 to 10 µM | < 0.1 µM |  | 
Cc1ncn2c1c(N)nc1ccc(C(=O)N(Cc3nc(-c4cccnn4)cs3)CC(C)C)cc12 [Example 294] | 1 to 10 µM | 0.1 to 1 µM |  | 
Cc1ncc2c(N)nc3cc(F)c(C(=O)N(Cc4ccc(C(F)(F)F)cn4)c4ncn(C)n4)cc3n12 [Example 115] | 1 to 10 µM | 0.1 to 1 µM |  | 
CCn1cc(N(Cc2ccc(C(F)(F)F)cn2)C(=O)c2cc3c(cc2F)nc(N)c2cnc(C)n23)c(C)n1 [Example 129] | 1 to 10 µM | < 0.1 µM |  | 
Cc1ncn2c1c(N)nc1cc(F)c(C(=O)N3C(C)COCC3c3ccc(C(F)(F)F)cc3)cc12 (stereo not shown) [Example 282] | 1 to 10 µM | < 0.1 µM |  | 
